Experimental data published in the supplement of paper PMC5752671.
Counter-ions that a name gives are not always drawn.

Key:
Conditions in all cases: 4 days
[1] = system: HL60; experiment: area under dose-response curve (cell viability) (AUC (arbitrary, % viability x log concentration)); higher = less sensitive (more viable)
Procedure, shortened: (§1)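 Fourteen leukemia cell lines were plated on extracellular-matrix-coated 384-well plates. Drugs were added robotically the next day at eight concentrations spanning 4–5 logs within 10^–12–10^–4 M, tailored per drug, in duplicate. Viability was read with CellTiter-Glo after 4 days. The value is the area under a four-parameter sigmoid fitted to the duplicate-averaged dose-response.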

[2] = system: OCI-AML2; experiment: as above
Procedure, shortened: as §1

[3] = system: EOL-1; experiment: as above
Procedure, shortened: as §1

[4] = system: KASUMI1; experiment: as above
Procedure, shortened: as §1

[5] = system: HL60; experiment: IC50 (cell viability) (log10 M)
Procedure, shortened: (§2)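 Fourteen leukemia cell lines were plated on extracellular-matrix-coated 384-well plates. Drugs were added robotically the next day at eight concentrations spanning 4–5 logs within 10^–12–10^–4 M, tailored per drug, in duplicate. Viability was read with CellTiter-Glo after 4 days. IC50 is the concentration where a fitted four-parameter curve crosses 50% viability, in log10 M; where that is not reached, the highest tested concentration is entered.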

[6] = system: U937; experiment: IC50 (cell viability) (log10 M)
Procedure, shortened: as §2

[7] = system: THP-1; experiment: IC50 (cell viability) (log10 M)
Procedure, shortened: as §2

[8] = system: OCI-AML2; experiment: IC50 (cell viability) (log10 M)
Procedure, shortened: as §2

[9] = system: MOLM/16; experiment: IC50 (cell viability) (log10 M)
Procedure, shortened: as §2

[10] = system: PL-21; experiment: IC50 (cell viability) (log10 M)
Procedure, shortened: as §2

[11] = system: OCI-AML3; experiment: IC50 (cell viability) (log10 M)
Procedure, shortened: as §2

[12] = system: SKM1; experiment: IC50 (cell viability) (log10 M)
Procedure, shortened: as §2

[13] = system: KG1; experiment: IC50 (cell viability) (log10 M)
Procedure, shortened: as §2

[14] = system: KASUMI1; experiment: IC50 (cell viability) (log10 M)
Procedure, shortened: as §2

[15] = system: MOLM/13; experiment: IC50 (cell viability) (log10 M)
Procedure, shortened: as §2

[16] = system: MV4.11; experiment: IC50 (cell viability) (log10 M)
Procedure, shortened: as §2

[17] = system: NB4; experiment: IC50 (cell viability) (log10 M)
Procedure, shortened: as §2

[18] = system: EOL-1; experiment: IC50 (cell viability) (log10 M)
Procedure, shortened: as §2

IC50 (log10 M) [5]	IC50 (log10 M) [6]	IC50 (log10 M) [7]	IC50 (log10 M) [8]	IC50 (log10 M) [9]	IC50 (log10 M) [11]	IC50 (log10 M) [12]	IC50 (log10 M) [15]	IC50 (log10 M) [16]	SMILES	area under dose-response curve [1]	area under dose-response curve [2]	area under dose-response curve [3]	area under dose-response curve [4]	IC50 (log10 M) [10]	IC50 (log10 M) [13]	IC50 (log10 M) [14]	IC50 (log10 M) [17]	IC50 (log10 M) [18]
< -8.34	> -5	> -5	< -8.34	> -5	< -8.34	< -8.34	-5.77	-6.67	CC(=O)Nc1cccc(-n2c(=O)n(C3CC3)c(=O)c3c(Nc4ccc(I)cc4F)n(C)c(=O)c(C)c32)c1	287	196	250	371	-7.81	-7.87	-7.17	-7.5	–
> -5	> -5	> -5	-5.41	-5.55	> -5	-5.35	-5.97	-6.66	CN(C)CCCn1cc(C2=C(c3c[nH]c4ccccc34)C(=O)NC2=O)c2ccccc21	710	582	479	647	-5.04	> -5	-5.1	> -5	-6.69
> -5	-5.57	> -5	> -5	-5.35	> -5	> -5	> -5	-5.01	N#CC[C@H](C1CCCC1)n1cc(-c2ncnc3[nH]ccc23)cn1	697	626	636	681	> -5	-5.38	> -5	> -5	-5.11
-6.72	-6.16	-6.33	-6.99	-6.39	> -6	-6.03	-7.19	-7.76	CN(C)CC[C@H](CSc1ccccc1)Nc1ccc(S(=O)(=O)NC(=O)c2ccc(N3CCN(Cc4ccccc4-c4ccc(Cl)cc4)CC3)cc2)cc1[N+](=O)[O-] [ABT-737]	457	400	333	403	-6	-6.4	-7.03	> -6	-7.89
> -5	> -5	> -5	> -5	-5.35	> -5	> -5	> -5	> -5	NC(=O)c1ccc2nc(-c3ccc(Oc4ccc(Cl)cc4)cc3)[nH]c2c1 [BML 277]	739	724	621	735	> -5	> -5	> -5	> -5	-5.36
> -5	> -5	-5.04	-5.37	> -5	> -5	> -5	> -5	-5.34	O=C(O)C1(C(=O)O)CCC1.[NH2-].[NH2-].[Pt+2] [Carboplatin]	751	608	617	749	> -5	> -5	> -5	> -5	-5.16
> -5	-5.02	> -5	> -5	-5.69	> -5	-5.01	-5.14	-5.42	C#Cc1cccc(Nc2ncnc3cc(OCCOC)c(OCCOC)cc23)c1 [Erlotinib HCl]	696	672	554	683	> -5	-5.31	> -5	> -5	-5.67
> -5	> -5	> -5	> -5	> -5	> -5	> -5	> -5	> -5	CCc1cccc2c3c([nH]c12)C(CC)(CC(=O)O)OCC3 (stereo unspecified) [Etodolac]	694	648	653	678	> -5	> -5	> -5	> -5	> -5
> -5	> -5	> -5	> -5	> -5	> -5	> -5	> -5	> -5	CSCC[C@H](NC(=O)c1ccc(NC[C@@H](N)CS)cc1-c1ccccc1)C(=O)O [FTI-276]	753	611	629	722	> -5	> -5	> -5	> -5	> -5
-5.46	-5.82	-5.28	-5.5	-5.9	-5.57	-5.32	-5.29	-5.75	CC1=C(/C=C/C(C)=C/C=C/C(C)=C/C(=O)Nc2ccc(O)cc2)C(C)(C)CCC1 [Fenretinide]	691	545	538	691	-5.44	-5.82	-5.47	-5.62	-5.86
> -5	> -5	> -5	> -5	> -5	> -5	> -5	> -5	> -5	c1cc(-c2sc(-c3ccncc3)c(-c3ccncc3)c2-c2ccncc2)ccn1 [GANT58]	733	603	599	704	> -5	> -5	> -5	> -5	> -5
-5.05	-5.47	-5.37	-5.55	-5.71	-5.49	-5.41	-5.77	-6.08	CCc1c2c(nc3ccc(OC(=O)N4CCC(N5CCCCC5)CC4)cc13)-c1cc3c(c(=O)n1C2)COC(=O)[C@]3(O)CC [Irinotecan HCl]	625	514	513	618	-5.44	-5.43	-5.07	-5.8	-6.09
-6.43	-6.99	-6.33	–	-6.99	-7	-6.97	-6.97	-7.18	CC(C)C[C@@H](C=O)NC(=O)[C@H](CC(C)C)NC(=O)[C@H](CC(C)C)NC(=O)OCc1ccccc1 [MG132]	487	352	429	484	-6.3	-6.61	-6.3	-7.22	-7.15
-6.97	-7.18	-7.5	< -8.48	-7.38	-7.53	-7.15	-7.55	< -8.48	CO[C@@]12[C@H](COC(N)=O)C3=C(C(=O)C(C)=C(N)C3=O)N1C[C@@H]1N[C@@H]12 [Mitomycin C]	419	203	274	453	-6.12	-6.54	-6.29	-7.79	-8.21
> -5	-7.27	> -5	> -5	-6.88	> -5	> -5	> -5	> -5	FC(F)(F)c1ccc(/C=C/c2nc(COc3ccc(CCCCn4ccnn4)cc3)co2)cc1 [Mubritinib]	611	547	404	534	> -5	> -5	> -5	-6.42	-7.63
-5.65	> -5	> -5	-5.56	-5.56	> -5	-5.47	-5.8	-5.83	COc1cc(N2CCC(N3CCN(C)CC3)CC2)ccc1Nc1ncc(Cl)c(Nc2ccccc2S(=O)(=O)C(C)C)n1 [NVP-TAE-684]	580	541	501	560	-5.79	-5.7	-5.7	-5.25	-5.97
-5.4	-6.28	-5.85	-5.73	-6.66	-6.16	-5.68	-5.97	-6.48	COc1cccc2cc(-c3nc([C@H]4CC[C@H](C(=O)O)CC4)n4ncnc(N)c34)[nH]c12 [OSI-027]	576	506	350	521	-6.24	-5.26	-5.9	-5.52	-8.18
> -5	> -5	> -5	> -5	> -5	> -5	> -5	> -5	> -5	C[C@@H]1C[C@H]2[C@@H]3CCC4=CC(=O)C=C[C@]4(C)[C@@]3(F)[C@@H](O)C[C@]2(C)[C@@]1(O)C(=O)CO [dexamethasone]	806	653	766	538	> -5	> -5	> -5	> -5	> -5

SMILES	IC50 (log10 M) [5]	IC50 (log10 M) [6]	IC50 (log10 M) [7]	IC50 (log10 M) [8]	IC50 (log10 M) [9]	IC50 (log10 M) [11]	IC50 (log10 M) [12]	IC50 (log10 M) [15]	IC50 (log10 M) [16]	area under dose-response curve [1]	area under dose-response curve [2]	area under dose-response curve [3]	area under dose-response curve [4]	IC50 (log10 M) [10]	IC50 (log10 M) [13]	IC50 (log10 M) [14]	IC50 (log10 M) [17]	IC50 (log10 M) [18]
Cc1ccccc1-n1c(Cn2cnc3c(N)ncnc32)nc2cccc(C)c2c1=O	> -5	> -5	> -5	> -5	> -5	> -5	> -5	> -5	> -5	719	633	598	665	> -5	> -5	> -5	> -5	> -5
N.N.[Cl][Pt][Cl] [Cisplatin]	> -5	> -5	> -5	> -5	> -5	> -5	> -5	> -5	> -5	764	646	666	731	> -5	> -5	> -5	> -5	> -5
Cn1cc(C2=C(c3cn(C4CCN(Cc5ccccn5)CC4)c4ccccc34)C(=O)NC2=O)c2ccccc21 [Enzastaurin]	> -5	> -5	> -5	> -5	> -5	> -5	> -5	> -5	-5.11	745	678	635	700	> -5	> -5	> -5	> -5	> -5
